Reference: patent US6794356B2, “Fabric softening composition comprising a malodor controlling agent” (The Procter & Gamble Company, priority 2000, dated 2004)

Settings: typical approximate values; salt added to the solution

SMILES | cloud point of 1% solution of Neodol 91-8
O=S(=O)([O-])[O-].[Ca+2] [calcium sulfate] | no change
[Cl-].[Na+] [sodium chloride] | 63-66.9 °C
